Laboratory results as given in PubChem BioAssay AID1919017 (Molecular Pharmacology Branch, DTP, NCI, 2023).

System: SW1271 complex spheroids with HUVEC/MSC, growth, % test/control
Assay: Anticancer human tumor SW1271 cell line growth inhibition [AhR];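 also: spheroids exposed to agents for 7 days before readout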
Conditions: for IC50: curve of first compound; for viability, T/C: stronger effect = lower value
From the text: Multicellular complex tumor spheroid response to aryl hydrocarbon receptor antagonists in combination with a variety of drugs and investigational agents in selected tumor cell lines
The current study was undertaken to assess response to aryl hydrocarbon receptor antagonists in combination with standard-of-care drugs and investigational agents in solid tumor complex spheroid models. Complex spheroids include a stromal component modeled by human endothelial cells (HUVEC) and fibroblasts modeled by human mesenchymal stem cells (MSCs). The concentration ranges selected for each drug and investigational agent were based upon clinically achievable concentrations if the clinical Cmax of the agent was known.
Compounds. The drugs and investigational agents: BAY 2416964 (NSC825713), GNF351 (NSC835774), CH-223191 (NSC835775), CPI-455 (NSC825282), aza-TdCyd (NSC777586), decitabine (NSC127716), belinostat (NSC758774), entinostat (NSC756642), pevonedistat (NSC761192), tazemetostat (NSC777109), talazoparib (NSC765396), olaparib (NSC753686), selinexor (NSC780203), nedisertib (M3814, NSC802822), bortezomib (NSC756655), venetoclax (NSC766270), doxorubicin (NSC123127), elimusertib (BAY189344, NSC800525), ceralasertib (AZD6738, NSC777638), TAK-243 (NSC785004), alisertib (NSC759677), etoposide (NSC141540), topotecan (NSC609699), eribulin (NSC707389), gemcitabine (NSC613327), carboplatin (NSC241240), cisplatin (NSC119875), and SN-38 (NSC673596) were obtained from the National Cancer Institute (NCI) Developmental Therapeutics Program Chemical Repository (32). The FDA-approved anticancer drug set is available from the Developmental Therapeutics Program at https://dtp.cancer.gov/organization/dscb/obtaining/available plates.htm. […] The stock solutions were prepared in dimethyl sulfoxide (DMSO, Sigma-Aldrich, St. Louis, MO, cat. D2650), except for the platinum compounds which were prepared in saline (Quality Biological, Gaithersburg, MD, cat. 114-055-101), at 800-fold the tested concentration and stored at -70 degrees C prior to their use. All drugs and investigational agents were tested over a range starting from a high concentration at or near the clinical Cmax and decreasing in half-log increments. If the clinical Cmax for an agent had not been determined, the highest concentration tested was 10 microM (Table 1).
Cell Culture. All cells were maintained in an incubator at 37 degrees C and 5% CO2 with 95% humidity. The PDC lines were cultured according to standard operating procedures established by the NCI PDMR (https://pdmr.cancer.gov). Briefly, all PDCs were thawed and cultured in Matrigel-coated flasks prepared with a working solution of 1X Ham's F-12 nutrient mix, without supplementation (Invitrogen, Waltham, MA, cat. 11765054), 100 U/mL penicillin-streptomycin (Invitrogen, cat. 15140122), and 2.5% Matrigel (Corning Inc., Corning, NY, cat. 354248) for the first three passages. All PDCs were cultured in complete DMEM/F-12 media containing advanced DMEM/F-12 (Invitrogen, cat. 12634028), 4.9% defined fetal bovine serum, heat inactivated (HyClone Laboratories Inc., Logan, UT, cat. SH30070.03HI), 389 ng/mL hydrocortisone (Sigma-Aldrich, cat. H4001), 9.7 ng/mL human EGF recombinant protein (Invitrogen, cat. PHG0313), 23.4 microg/mL adenine (Sigma-Aldrich, cat. A2786), 97.3 U/mL penicillin-streptomycin (Invitrogen, cat. 15140122), 1.9 mM L-glutamine (Invitrogen, cat. 25030081), and 9.7 microM Y-27632 dihydrochloride (Tocris Bioscience, Bristol, United Kingdom, cat. 1254). The PDCs were cultured in complete DMEM/F12 media without 10 microM Y-27632 dihydrochloride for at least two passages prior to the screen. The established cell lines NCI-H1341 and […] were cultured in DMEM/F-12, HEPES (Invitrogen, cat. 11330032), 5% defined fetal bovine serum (HyClone Laboratories Inc., cat. SH30070.03), ITS premix universal culture supplement [insulin (5 microg/mL), transferrin (5 microg/mL), and selenious acid (5 ng/mL)] […]

[1] = second compound 0.1 µM, first compound 0.0316 µM
[2] = second compound 0.1 µM, first compound 0.1 µM
[3] = second compound 0.316 µM, first compound 0.0316 µM
[4] = second compound 0.316 µM, first compound 0.1 µM
[5] = second compound 1 µM, first compound 0.0316 µM
[6] = second compound 1 µM, first compound 0.1 µM
[7] = second compound 3.16 µM, first compound 0.0316 µM
[8] = second compound 3.16 µM, first compound 0.1 µM
[9] = second compound 10 µM, first compound 0.0316 µM
[10] = second compound 10 µM, first compound 0.1 µM

SMILES: Cn1ncnc1C1c2n[nH]c(=O)c3cc(F)cc(c23)NC1c1ccc(F)cc1 (stereo not given) + CC(CO)NC(=O)c1cc(-c2ccc(Cl)cc2)nn(-c2cnn(C)c2)c1=O
- IC50 (second compound 0.1 µM): > 100 nM
- IC50 (second compound 0.316 µM): > 100 nM
- IC50 (second compound 1 µM): > 100 nM
- IC50 (second compound 3.16 µM): > 100 nM
- IC50 (second compound 10 µM): > 100 nM
- viability, T/C (second compound 0.1 µM, first compound 0.000316 µM): 111%
- viability, T/C (second compound 0.1 µM, first compound 0.001 µM): 104%
- viability, T/C (second compound 0.1 µM, first compound 0.00316 µM): 95.8%
- viability, T/C (second compound 0.1 µM, first compound 0.01 µM): 98%
- viability, T/C [1]: 84%
- viability, T/C [2]: 107%
- viability, T/C (second compound 0.316 µM, first compound 0.000316 µM): 84.1%
- viability, T/C (second compound 0.316 µM, first compound 0.001 µM): 87.1%
- viability, T/C (second compound 0.316 µM, first compound 0.00316 µM): 104%
- viability, T/C (second compound 0.316 µM, first compound 0.01 µM): 89%
- viability, T/C [3]: 85.2%
- viability, T/C [4]: 79.2%
- viability, T/C (second compound 1 µM, first compound 0.000316 µM): 96.2%
- viability, T/C (second compound 1 µM, first compound 0.001 µM): 101%
- viability, T/C (second compound 1 µM, first compound 0.00316 µM): 73.7%
- viability, T/C (second compound 1 µM, first compound 0.01 µM): 81.2%
- viability, T/C [5]: 74.1%
- viability, T/C [6]: 103%
- viability, T/C (second compound 3.16 µM, first compound 0.000316 µM): 79.7%
- viability, T/C (second compound 3.16 µM, first compound 0.001 µM): 73%
- viability, T/C (second compound 3.16 µM, first compound 0.00316 µM): 71.4%
- viability, T/C (second compound 3.16 µM, first compound 0.01 µM): 89.1%
- viability, T/C [7]: 84.5%
- viability, T/C [8]: 77.2%
- viability, T/C (second compound 10 µM, first compound 0.000316 µM): 71.8%
- viability, T/C (second compound 10 µM, first compound 0.001 µM): 74.6%
- viability, T/C (second compound 10 µM, first compound 0.00316 µM): 61.4%
- viability, T/C (second compound 10 µM, first compound 0.01 µM): 89.4%
- viability, T/C [9]: 75.9%
- viability, T/C [10]: 76.1%

SMILES: NS(=O)(=O)OCC1CC(n2ccc3c(NC4CCc5ccccc54)ncnc32)CC1O (stereo not given) + CC(CO)NC(=O)c1cc(-c2ccc(Cl)cc2)nn(-c2cnn(C)c2)c1=O
- IC50 (second compound 0.1 µM): 3420 nM
- IC50 (second compound 0.316 µM): 2910 nM
- IC50 (second compound 1 µM): 3160 nM
- IC50 (second compound 3.16 µM): > 10000 nM
- IC50 (second compound 10 µM): > 10000 nM
- viability, T/C [1]: 112%
- viability, T/C [2]: 133%
- viability, T/C (second compound 0.1 µM, first compound 0.316 µM): 96.5%
- viability, T/C (second compound 0.1 µM, first compound 1 µM): 65.9%
- viability, T/C (second compound 0.1 µM, first compound 3.16 µM): 44.6%
- viability, T/C (second compound 0.1 µM, first compound 10 µM): 51.8%
- viability, T/C [3]: 127%
- viability, T/C [4]: 115%
- viability, T/C (second compound 0.316 µM, first compound 0.316 µM): 92.5%
- viability, T/C (second compound 0.316 µM, first compound 1 µM): 58.5%
- viability, T/C (second compound 0.316 µM, first compound 3.16 µM): 47.3%
- viability, T/C (second compound 0.316 µM, first compound 10 µM): 49.7%
- viability, T/C [5]: 125%
- viability, T/C [6]: 127%
- viability, T/C (second compound 1 µM, first compound 0.316 µM): 118%
- viability, T/C (second compound 1 µM, first compound 1 µM): 69.2%
- viability, T/C (second compound 1 µM, first compound 3.16 µM): 48.2%
- viability, T/C (second compound 1 µM, first compound 10 µM): 50.6%
- viability, T/C [7]: 133%
- viability, T/C [8]: 129%
- viability, T/C (second compound 3.16 µM, first compound 0.316 µM): 108%
- viability, T/C (second compound 3.16 µM, first compound 1 µM): 69.2%
- viability, T/C (second compound 3.16 µM, first compound 3.16 µM): 54%
- viability, T/C (second compound 3.16 µM, first compound 10 µM): 59.3%
- viability, T/C [9]: 86.2%
- viability, T/C [10]: 104%
- viability, T/C (second compound 10 µM, first compound 0.316 µM): 103%
- viability, T/C (second compound 10 µM, first compound 1 µM): 76%
- viability, T/C (second compound 10 µM, first compound 3.16 µM): 62.6%
- viability, T/C (second compound 10 µM, first compound 10 µM): 63.6%
